{"source": "patent US11672792B2", "about": "“Topical formulations comprising montelukast and combinations with mussel adhesive proteins” (ENLITISA (SHANGHAI) PHARMACEUTICAL CO., LTD, priority 2017, dated 2023)", "system": "full thickness skin wounds", "assay": "Acute Wound Model (Example 6)", "format": "in vivo, C57BL/6 mice", "conditions": "for Hyp content (μg/mg tissue weight), single animals / Hyp content, Mean (n = 4): wound tissue", "description": "6-8 weeks old male C57BL/6 mice were supplied by Changzhou Cvens Experimental Animal Co. Ltd. Prior to any experiments being conducted, mice were housed under standardized conditions (at a constant temperature or 22±2° C., with alternating 12 hour periods of light and darkness), and were fed on a standard mouse diet with water, for about a week. […] The hair on the back was shaved by a baby hair shaver and depilated with cream. […] EMS skin biopsy punch (Electron Microscopy Sciences, P.O. […] Full thickness skin was removed and the depth reached the fascia. The wounds left open without suture. […] The model group was given same amount of normal saline. Recombinant Human Epidermal Growth Factor (rhEGF, Shanghai Haohai Biological Technology Co. Ltd, Shanghai, China) was purchased and prepared according to the manufacturer's instructions. Lyophilized rhEGF powder (100000 IU/vial) was dissolved in 20 mL of normal saline to make a solution with a 5000 IU/mL concentration. […] MedChemExpress, MCE China, Shanghai, China) was obtained in a powder form and was dissolved in ultrapure water to obtain solutions with concentrations as described in Table 22 (L, M and H indicate low, medium and high montelukast doses, respectively) Wounds were wrapped up with transparent dresser after drug administration. Photographs were taken for each wound every other day from Day 0. Photos were scanned into a computer, and wound areas calculated using ImageJ image analysis software (National Institutes of Health, […]). The unhealed wound area was expressed as a percentage of the original wound area: At/A0×100%, where A0 and At refer to the initial area at Day 0 and the wound area at the date of measurement (time t), respectively. […] Half of the tissue was preserved in 10% neutral buffered formalin (Nanchang […] Experimental Equipment Co., Ltd., Nanchang, […] Provence, China), and analyzed by histological embedding in paraffin wax, sectioning and staining. HE and Masson stained paraffin sections were analyzed under an optical microscope. Skin regeneration, fibroblastic proliferation, collagen regeneration scores and inflammation scores were estimated. The rest of the samples were stored at -80° C. for further analysis. […] The supernatant was collected, and the extracted protein was used for ELISA analysis using standard ELISA test kits and an ELISA reader (SH-1000 Hitachi, Japan). […] (Beijing, China).", "note": "Values joined by “and” are separate entries in the source; they are usually repeats but may differ in a detail not shown here. Equal values may be shown once.", "data": [{"smiles": "CC(C)(O)c1ccccc1CC[C@@H](SCC1(CC(=O)O)CC1)c1cccc(/C=C/c2ccc3ccc(Cl)cc3n2)c1", "note": "[Mon, Montelukast sodium]", "values": [{"measurement": "remaining wound area versus the initial wound", "setting": "Day 2, Mon H 200 μg/wound", "value": "76.11 ± 6.40", "unit": "%"}, {"measurement": "remaining wound area versus the initial wound", "setting": "Day 2, Mon L 50 μg/wound once daily topically", "value": "78.41 ± 9.51", "unit": "%"}, {"measurement": "remaining wound area versus the initial wound", "setting": "Day 2, Mon M 100 μg/wound", "value": "79.97 ± 11.79", "unit": "%"}, {"measurement": "improvement rate (wound healing)", "setting": "Day 4, Mon H 200 μg/wound", "value": "about 39%"}, {"measurement": "remaining wound area versus the initial wound", "setting": "Day 4, Mon H 200 μg/wound", "value": "48.60 ± 6.49", "unit": "%"}, {"measurement": "remaining wound area versus the initial wound", "setting": "Day 4, Mon L 50 μg/wound", "value": "57.59 ± 11.54", "unit": "%"}, {"measurement": "remaining wound area versus the initial wound", "setting": "Day 4, Mon M 100 μg/wound", "value": "55.09 ± 8.83", "unit": "%"}, {"measurement": "remaining wound area versus the initial wound", "setting": "Day 6, Mon H 200 μg/wound", "value": "29.13 ± 6.16", "unit": "%"}, {"measurement": "remaining wound area versus the initial wound", "setting": "Day 6, Mon L 50 μg/wound", "value": "27.53 ± 3.76", "unit": "%"}, {"measurement": "remaining wound area versus the initial wound", "setting": "Day 6, Mon M 100 μg/wound", "value": "28.51 ± 1.03", "unit": "%"}, {"measurement": "remaining wound area versus the initial wound", "setting": "Day 8, Mon H 200 μg/wound", "value": "14.59 ± 3.04", "unit": "%"}, {"measurement": "remaining wound area versus the initial wound", "setting": "Day 8, Mon L 50 μg/wound", "value": "14.08 ± 2.85", "unit": "%"}, {"measurement": "remaining wound area versus the initial wound", "setting": "Day 8, Mon M 100 μg/wound", "value": "13.87 ± 3.51", "unit": "%"}, {"measurement": "remaining wound area versus the initial wound", "setting": "Day 12, Mon H 200 μg/wound", "value": "2.48 ± 3.43", "unit": "%"}, {"measurement": "remaining wound area versus the initial wound", "setting": "Day 12, Mon L 50 μg/wound", "value": "1.15 ± 2.29", "unit": "%"}, {"measurement": "remaining wound area versus the initial wound", "setting": "Day 12, Mon M 100 μg/wound", "value": "2.15 ± 3.73", "unit": "%"}, {"measurement": "Hyp content (μg/mg tissue weight), single animals", "setting": "Mon H 200 μg/wound", "value": "4.62 μg/mg tissue weight and 5.83 μg/mg tissue weight and 3.99 μg/mg tissue weight and 4.64 μg/mg tissue weight"}, {"measurement": "Hyp content, Mean (n = 4)", "setting": "Mon H 200 μg/wound", "value": 4.77, "unit": "μg/mg tissue weight"}, {"measurement": "Hyp content (μg/mg tissue weight), single animals", "setting": "Mon L 50 μg/wound", "value": "4.65 μg/mg tissue weight and 4.41 μg/mg tissue weight and 6.71 μg/mg tissue weight and 6.05 μg/mg tissue weight"}, {"measurement": "Hyp content, Mean (n = 4)", "setting": "Mon L 50 μg/wound", "value": 5.46, "unit": "μg/mg tissue weight"}, {"measurement": "Hyp content (μg/mg tissue weight), single animals", "setting": "Mon M 100 μg/wound", "value": "4.94 μg/mg tissue weight and 4.18 μg/mg tissue weight and 6.80 μg/mg tissue weight and 4.98 μg/mg tissue weight"}, {"measurement": "Hyp content, Mean (n = 4)", "setting": "Mon M 100 μg/wound", "value": 5.23, "unit": "μg/mg tissue weight"}]}]}
